Consider one compound from ChEMBL document CHEMBL5550148, “Systematic alanine and stapling mutational analysis of antimicrobial peptide Chem-KVL” (Bioorg Med Chem Lett, 2024).

Values after ≈ are worked out from the molar mass of the structure shown. Bridge positions count the residues as written; N and C are the ends. Square brackets hold non-standard residues; d marks the D form. Peptide text beside a SMILES is read from it. S5 = C=CCCC[C@](C)(N)C(=O)O

For data set [1], the system named is Acinetobacter baumannii. Kind of data set: Antibacterial activity against Acinetobacter baumannii ATCC 17978 assessed as inhibition of bacterial growth. In kind it is functional.
Data set [2] deals with Staphylococcus aureus. Kind of data set: Antibacterial activity against Staphylococcus aureus ATCC 25923 assessed as inhibition of bacterial growth. It is filed as functional.
Data set [3] deals with Klebsiella pneumoniae. The data set is described as follows: Antibacterial activity against Klebsiella pneumoniae ATCC 13883 assessed as inhibition of bacterial growth. In kind it is functional.
For data set [4], the system named is Pseudomonas aeruginosa. Kind of data set: Antibacterial activity against Pseudomonas aeruginosa ATCC 27853 assessed as inhibition of bacterial growth. It is filed as functional.
The subject of data set [5] is Escherichia coli. The data set is described as follows: Antibacterial activity against Escherichia coli ATCC 25922 assessed as inhibition of bacterial growth. In kind it is functional.
Data set [6] deals with Salmonella typhimurium. Kind of data set: Antibacterial activity against Salmonella typhimurium clinical isolate assessed as inhibition of bacterial growth. The following applies: Salmonella enterica. It is filed as functional, Salmonella enterica subsp. enterica serovar Typhimurium.
The target of data set [7] is chymotrypsin (Homo sapiens, UniProt P17538+P40313+Q6GPI1+Q99895). The data set is described as follows: Proteolytic stability of compound assessed as chymotrypsin (unknown origin) mediated drug degradation by measuring compound remaining after 4 hrs by HPLC analysis. In kind it is ADME, protein assay. The following applies: read-out: Stability.
The nature of data set [8]: Cytotoxicity against mouse RAW264.7 cells. It is filed as toxicity, cell-based.
A short description of data set [9]: Retention time of compound by HPLC analysis. In kind it is physicochemical.

For orientation: MIC means the smallest concentration in the dilution series that meets the test's criterion for growth inhibition. In general, IC50 refers to the concentration that gives 50% inhibition. Read a low IC50 as greater potency. For `CC(=O)N[C@@H](CCCCN)C(=O)N[C@H](C(=O)N[C@@H](CC(C)C)C(=O)NCC(=O)N[C@@H](CCCNC(=N)N)C(=O)N[C@@]1(C)CCC/C=C\CCC[C@@](C)(C(=O)NCC(=O)N[C@@H](CCCNC(=N)N)C(=O)N[C@@H](CC(C)C)C(=O)N[C@H](C(N)=O)C(C)C)NC(=O)[C@H](C(C)C)NC(=O)[C@H](CCCCN)NC(=O)[C@H](C(C)C)NC1=O)C(C)C` (Ac-KVLGR[S5]VKV[S5]GRLV-NH2; staple (Z) 6-10), the MIC in data set [1] was 16 µg/mL (≈ 9.91 µM); in data set [2], 2 µg/mL (≈ 1.24 µM); in data set [3] it was 64 µg/mL (≈ 39.6 µM); in [4], 4 µg/mL (≈ 2.48 µM); in [5], 32 µg/mL (≈ 19.8 µM); in data set [6], 64 µg/mL (≈ 39.6 µM). Further, in data set [7], the remaining at 4 h was above 70%. Half-maximal inhibition in data set [8] (IC50) was put at 2.95 µg/mL (≈ 1.83 µM). The compound further registered a Time in data set [9] of 26.5 min.
